Experimental data taken from US20010016952A1, “Pathogenesis of cardiomyopathy” (priority 1999, published 2001).
“Also recorded” adds a separate entry of the source.

How the values were obtained:
Format in all cases: in vivo, mouse
[1] = system: Sgcd-null mice; assay: Treadmill exercise of Sgcd-null mice with Evans blue dye uptake and H&E histopathology of cardiac muscle
Experimental: Treadmill exercise is one of the primary methods used clinically to induce cardiovascular stress in human and animals (Fewell et al., Am. J. Physiol. 273: H1595-H1605 (1997)) and is used to detect cardiovascular abnormalities (e.g. coronary artery dysfunction) that may not be readily apparent at rest. […] All mice were injected with Evans blue dye (EBD) 8 hr before the exercise. EBD is a small molecular mass tracer that tightly complexes with serum albumin. Normally, this is a membrane impermeable molecule, but if the sarcolemma integrity is compromised this dye readily penetrates into the cytoplasm of muscle fibers (Matsuda et al., J. Biochem. (Tokyo) 118: 959-964 (1995); Straub et al., J. Cell Biol. 139: 375-385 (1997)). EBD uptake as well as routine histopathology was examined in the cardiac muscle.
Treadmill exercise. […] Animals were exercised at 12-17 m/min for about 10 min and for 25-30 m/min for the remaining 50 min. If an animal became exhausted, the shock bar of this lane was turned off and the animal was allowed to rest at the back of the treadmill for a short period of time. Wild type (n=20), Sgca- (n=20) and Sgcd-null mice (n=42) were divided in approximately equal numbers of male and females. All mice were injected with Evans blue dye (0.5 mg EBD/0.05 ml PBS) intraperitoneally 8 hr before the exercise. Animals were injected with 50 μl of this solution per 10-g body weight. […] The effect of Nicorandil treatment on treadmill performance in wild type (n=6), Sgca- (n=6) and Sgcd-null mice (n=20) was studied after 3 days of intraperitoneal injection of Nicorandil at a dose of 1 mg/kg body weight twice a day. Quantification of Evans blue positive stained areas in sections of cardiac muscle from Sgca- and Sgcd-null mice (n=20, each group) was done by using the Scion image program. The percentage of positive stained areas was calculated by dividing the area of staining by the total area of the analyzed heart section.

[2] = system: Sgcd-null mice; assay: Microfil perfusion of coronary arteries
Text: The Microfil® perfusion technique was used in vivo in order to determine whether disruption of the SG-SSPN complex in smooth muscle of coronary arteries indeed leads to vascular perfusion abnormalities. Wild type, Sgca-null and Sgcd-null mice at the age of 2-6 months were perfused, and cleared sections of the heart were visualized using trans-illumination with low-power magnification. The coronary microvessels were distributed normally and were smoothly tapered in both wild type and Sgca-null mice. […] Pre- and poststenotic dilation as an appearance of microaneurysm was frequently associated with these constrictions. Extensive areas of focal vascular lumen narrowing and a generalized sparseness of perfusion were observed. […] Quantification of vascular abnormalities in Sgcd-null mice at different ages were determined by calculating the mean numbers of abnormal vessels ±SEM in 10 nonadjacent microscopic fields at a magnification of 10×. No lesions were detected in Sgca-null and wild type mice.
Microfil® perfusion. In order to study coronary microvascular perfusion mice were anesthetized with Phenobarbital 75 mg/kg body weight and a bilateral sternum incision was performed to expose the left atrium. 1-1.5 ml of Microfil®, a liquid silicon rubber (Flow tech, Carver, Mass.) was perfused into the left atrium. The heart continued beating for about 1 min and after contraction stopped the heart was rapidly excised and cured on ice for about 10 min. […] Microvascular perfusion was visualized with both epi- and tans-illumination and examined under low power magnification (×10-20). the vascular irregularities in Sgcd-null mice at different ages (2, 4, and 6 months) were quantified by counting the number of abnormal individual vessel segments in 10 nonadjacent microscopic field using a low magnification (10×) and the mean number of abnormal vessels were calculated for each mouse. An average number of abnormal vessels ±SEM were then calculated for each age group. Vessels segments with more than one abnormality were only counted once.

[3] = system: Sgcd-null mice; assay: Systemic blood pressure after Nicorandil; conditions: at the dose given
[4] = system: wild type or Sgca-null mice; assay: Treadmill exercise of wild type or Sgca-null mice after Nicorandil; conditions: after administration of Nicorandil
Experimental: Treadmill exercise. […] Animals were exercised at 12-17 m/min for about 10 min and for 25-30 m/min for the remaining 50 min. If an animal became exhausted, the shock bar of this lane was turned off and the animal was allowed to rest at the back of the treadmill for a short period of time. Wild type (n=20), Sgca- (n=20) and Sgcd-null mice (n=42) were divided in approximately equal numbers of male and females. All mice were injected with Evans blue dye (0.5 mg EBD/0.05 ml PBS) intraperitoneally 8 hr before the exercise. Animals were injected with 50 μl of this solution per 10-g body weight. All surviving animals were kept alive for 36-48 hr and serial sections of cardiac muscle were studied for Evans blue uptake and for histopathological signs of necrosis by using routine H&E technique. The effect of Nicorandil treatment on treadmill performance in wild type (n=6), Sgca- (n=6) and Sgcd-null mice (n=20) was studied after 3 days of intraperitoneal injection of Nicorandil at a dose of 1 mg/kg body weight twice a day. Quantification of Evans blue positive stained areas in sections of cardiac muscle from Sgca- and Sgcd-null mice (n=20, each group) was done by using the Scion image program. The percentage of positive stained areas was calculated by dividing the area of staining by the total area of the analyzed heart section.

[5] = Sgcd-null mice after administration of Nicorandil

With O=C(NCCO[N+](=O)[O-])c1cccnc1 [Nicorandil] the “EBD uptake in cardiac muscle” value ([1]; 2 months old exercised Sgcd-null mice, intraperitoneal Nicorandil for 3 days prior to the exercise) was “No EBD uptake was observed”, the “development of multiple myocardial ischemic lesions” value ([1]; Sgcd-null mice (n=20), treadmill exercise, Nicorandil intraperitoneal 1 mg/kg body weight twice a day for 3 days prior to exercise) was “prevented mortality and the development of multiple myocardial lesions; also recorded: prevent the development of multiple myocardial ischemic lesions in all Sgcd-null mice” and the “mortality in treadmill stressed mice” value ([1]; Sgcd-null mice, Nicorandil given prior to the application of physical stress) was “prevented mortality”. The “constrictions and focal luminal narrowing of the coronary microvascular bed (perfusion studies)” value ([2]; Nicorandil treated Sgcd-null mice) was “free of constrictions and focal luminal narrowing”, the “density of the vasculature (Microfil perfusion)” value [2, 5] was “overall greater density of the vasculature” and the “vascular constrictions of coronary arteries (Microfil perfusion)” value [2, 5] was “no evidence of vascular constrictions”. For the same molecule, the systemic blood pressure [3] was “did not lower the systemic blood pressure” and the “general behavior during exercise and cardiac muscle abnormalities” value [4] was “No alteration of the general behavior during exercise or any cardiac muscle abnormalities was observed”.
